From patent US20220411422A1, “ERBB RECEPTOR INHIBITORS” (Dizal (Jiangsu) Pharmaceutical Co., Ltd., priority 2018, published 2022)

What was measured:
wild type EGFR = target: T1, wild type EGFR (Homo sapiens, UniProt P00533); test: pEGFR cellular activity in A431 cell line; type: cell-based
T1 construct: which expresses wild type EGFR protein; endogenous in cells; host or cells: A431
Experimental: A compound's activity of inhibition for EGFR WT can be evaluated with NCI-H838 (ATCC® CRL-5844™) and A431 cell line (the epidermoid carcinoma cell line A-431), which expresses wild type EGFR protein as the count screening to define the selectivity of the compound.
The compounds' inhibition of target modulation were determined as follows: NCI-H838 cells and A431 cells were sorted in 96 well plates (20000 cells/well) with the DMEM medium containing 1% FBS overnight and then treated with tested compounds at a series of concentrations (3 μM, 0.3 μM, 0.1 μM, 0.03 μM, 0.01 μM, 0.003 μM, 0.001 μM, 0.0001 μM). The plates were incubated for 4 h at 37° C. with 5% CO2 followed by the stimulation of recombinant hEGF (100 ng/ml for 10 Min, RD, Cat #236-EG) and then the EGFR (Y1068) phosphorylation level of cells in each well were measured with MSD Kit (MULTI-SPOT®96 4-Spot HB Prototype EGFR Triplex […]: pEGFR (Tyr1068), pEGFR (Tyr1173), Total EGFR (Cat #N45ZB-1). The assay is a electrochemiluminescent method (MESO SCALE DISCOVERY) for determining both phosphorylated and total EGFR of cells with an MSD SECTOR® Imager and then the ratio of p-EGFR/total EGFR can be generated by the machine. The percentage of inhibition was used the formula: % inhibition=100×[1−(ratio of sample well−ratio of Min ctrl well)/(ratio of Max−Ratio of Min ctrl well)]. […]

pHER2 in tumor tissue = target: T2, pHER2 in tumor tissue (Homo sapiens, UniProt P04626); test: PK/PD relationship in BT474cl SC model; type: in vivo, mouse
T2 construct: The SC, BM and LM models with HER2 overexpression; from tissue; host or cells: BT474cl subcutaneous xenograft tumour in mice
T2 sequence (P04626 23-1255): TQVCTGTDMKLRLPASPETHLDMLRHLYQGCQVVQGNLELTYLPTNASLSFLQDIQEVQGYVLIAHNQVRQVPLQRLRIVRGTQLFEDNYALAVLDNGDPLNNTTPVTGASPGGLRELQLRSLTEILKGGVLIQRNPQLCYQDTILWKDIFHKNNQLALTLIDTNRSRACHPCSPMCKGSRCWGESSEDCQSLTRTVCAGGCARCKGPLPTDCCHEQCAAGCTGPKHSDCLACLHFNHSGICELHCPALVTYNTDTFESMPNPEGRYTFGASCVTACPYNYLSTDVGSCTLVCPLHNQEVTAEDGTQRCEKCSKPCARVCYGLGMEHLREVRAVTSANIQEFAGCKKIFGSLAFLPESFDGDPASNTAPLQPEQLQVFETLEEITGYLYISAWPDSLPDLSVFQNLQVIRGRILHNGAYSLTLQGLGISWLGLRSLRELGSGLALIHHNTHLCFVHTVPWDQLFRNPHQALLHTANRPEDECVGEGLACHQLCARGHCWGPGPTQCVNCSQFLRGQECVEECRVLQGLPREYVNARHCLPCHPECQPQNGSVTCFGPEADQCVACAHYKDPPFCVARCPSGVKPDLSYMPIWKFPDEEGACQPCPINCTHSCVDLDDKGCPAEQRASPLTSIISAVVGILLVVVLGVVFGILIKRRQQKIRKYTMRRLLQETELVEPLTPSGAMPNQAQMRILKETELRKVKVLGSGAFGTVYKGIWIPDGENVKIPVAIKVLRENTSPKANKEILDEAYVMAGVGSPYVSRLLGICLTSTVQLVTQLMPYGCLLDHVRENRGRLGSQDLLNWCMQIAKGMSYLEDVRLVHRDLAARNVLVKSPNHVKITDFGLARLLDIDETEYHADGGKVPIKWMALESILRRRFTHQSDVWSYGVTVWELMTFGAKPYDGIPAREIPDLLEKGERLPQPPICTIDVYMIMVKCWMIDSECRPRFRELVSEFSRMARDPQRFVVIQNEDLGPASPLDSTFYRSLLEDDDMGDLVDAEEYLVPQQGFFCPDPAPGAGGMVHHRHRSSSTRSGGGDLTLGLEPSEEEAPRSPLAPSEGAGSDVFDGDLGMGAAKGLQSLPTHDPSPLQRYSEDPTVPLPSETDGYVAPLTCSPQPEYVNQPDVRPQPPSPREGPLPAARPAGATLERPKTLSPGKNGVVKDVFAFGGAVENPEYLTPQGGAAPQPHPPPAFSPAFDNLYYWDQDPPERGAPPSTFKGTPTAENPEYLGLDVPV
Experimental: The SC, BM and LM models with HER2 overexpression were treated with the Compound 6 at dosages of 25 mg/kg, 50 mg/kg, 100 mg/kg and 150 mg/kg. […] Moreover, the Compound 6 at dosages of 6.25 mg/kg, Capecitabine (400 mg/kg), T-DM1 (15 mg/kg), Compound 6 (6.25 mg/kg) in combination with Capecitabine (400 mg/kg) or T-DM1 (15 mg/kg) were used to treat the SC, and BM models with HER2 overexpression to check the tumor regression effect of Compound 6 in combination with other anti-cancer agent. […] Moreover, the PK and PD of Compound 6 in BT474cl SC model were tested.

T1 sequence (P00533 25-1210): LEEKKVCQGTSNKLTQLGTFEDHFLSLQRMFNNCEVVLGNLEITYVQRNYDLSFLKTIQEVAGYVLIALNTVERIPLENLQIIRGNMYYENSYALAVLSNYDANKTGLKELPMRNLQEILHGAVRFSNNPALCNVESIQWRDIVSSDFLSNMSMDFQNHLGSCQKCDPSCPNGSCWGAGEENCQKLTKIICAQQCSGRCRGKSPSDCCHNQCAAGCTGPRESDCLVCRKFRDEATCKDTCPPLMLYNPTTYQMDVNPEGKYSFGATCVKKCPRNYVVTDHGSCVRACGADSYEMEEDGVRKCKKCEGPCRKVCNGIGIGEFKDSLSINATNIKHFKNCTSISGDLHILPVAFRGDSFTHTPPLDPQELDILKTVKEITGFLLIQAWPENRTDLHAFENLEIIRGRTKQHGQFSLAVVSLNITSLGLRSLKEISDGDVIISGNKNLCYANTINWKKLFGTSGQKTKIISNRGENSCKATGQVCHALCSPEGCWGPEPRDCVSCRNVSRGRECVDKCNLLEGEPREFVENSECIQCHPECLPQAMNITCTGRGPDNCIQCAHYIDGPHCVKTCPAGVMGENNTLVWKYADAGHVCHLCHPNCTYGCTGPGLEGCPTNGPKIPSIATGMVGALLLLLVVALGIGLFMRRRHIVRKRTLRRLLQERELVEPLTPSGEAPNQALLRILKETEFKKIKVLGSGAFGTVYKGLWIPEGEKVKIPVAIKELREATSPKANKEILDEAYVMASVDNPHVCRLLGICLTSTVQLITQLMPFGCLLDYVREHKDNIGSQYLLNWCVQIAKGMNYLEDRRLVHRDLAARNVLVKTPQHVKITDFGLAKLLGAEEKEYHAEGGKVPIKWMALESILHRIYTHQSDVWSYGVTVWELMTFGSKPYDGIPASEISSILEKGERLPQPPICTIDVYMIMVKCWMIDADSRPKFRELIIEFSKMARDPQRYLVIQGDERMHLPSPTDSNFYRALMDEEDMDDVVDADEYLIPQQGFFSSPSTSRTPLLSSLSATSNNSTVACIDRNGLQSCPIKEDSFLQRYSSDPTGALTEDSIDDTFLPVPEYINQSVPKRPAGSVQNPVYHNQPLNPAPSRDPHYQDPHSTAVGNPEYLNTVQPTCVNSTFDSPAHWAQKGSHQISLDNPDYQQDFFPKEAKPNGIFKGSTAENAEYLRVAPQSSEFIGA

COc1cc(O[C@H]2CCN(C)CC2(F)F)c2c(Nc3ccc(Oc4ccn5ncnc5c4)c(C)c3)ncnc2c1 (single isomer, unassigned) [Compound 6]
IC50 (wild type EGFR): 1.46 µM
relationship between plasma concentration and pHER2 inhibition in tumor tissue (pHER2 in tumor tissue): positive correlation
